These compounds were tested on HCV (Ib) RNA replication (assay: Cell-based luciferase reporter HCV (1b) RNA replication assay (replicon cell lines Huh-7 5.2 and ET)). Details: Hepatitis C virus, Huh-7, 96 h, HCV 1b genotype replicon, luciferase readout, 4 days incubation; read-out: EC50_1b.
Design: species or system Hepatitis C virus
Source text: Cell-Based Luciferase Reporter HCV (Ib) RNA Replication Assay Cell Culture
Replicon cell lines Huh-7, 5.2 and ET which are derived from the Huh-7 hepatocarcinoma cell line are maintained in culture as generally described in Krieger, N; Lohmann, V; Bartenschlager, R. Enhancement of hepatitis C virus RNA replication by cell culture-adaptive mutations. J. Virol. 2001, 75, 4614-4624. The Huh-7, 5.2 cells contain the highly cell culture-adapted replicon I389luc-ubi-neo/NS3-3′/5.1 construct that carries, in addition to the neomycin gene, an integrated copy to the firefly luciferase gene (Krieger, N; Lohmann, V; Bartenschlager, R. Enhancement of hepatitis C virus RNA replication by cell culture-adaptive mutations. J. Virol. 2001, 75, 4614-4624). This cell line allows measurement of HCV RNA replication and translation by measuring luciferase activity. It has been previously shown that the luciferase activity tightly follows the replicon RNA level in these cells (Krieger, N; Lohmann, V; Bartenschlager, R. Enhancement of hepatitis C virus RNA replication by cell culture-adaptive mutations. J. Virol. 2001, 75, 4614-4624). The Huh-7, ET cell line has the same features as those mentioned for Huh-7, 5.2 cell line, except that ET cells are more robust and contain an adaptative mutation in the HCV NS4B gene instead of NS5A. Both cell lines are maintained in cultures at a sub-confluent level (<85%) as the level of replicon RNA is highest in actively proliferating cells. The culture media used for cell passaging consist of DMEM (Gibco BRL Laboratories, Mississauga, ON, Canada) supplemented with 10% foetal bovine serum with 1% penicillin/streptomycin, 1% glutamine, 1% sodium pyruvate, 1% non-essential amino acids, and 180 ug/ml of G418 final concentration. Cells are incubated at 37° C., in an atmosphere of 5% CO2 and passaged twice a week to maintain sub-confluence.
Approximately 3000 viable Huh-7, 5.2 or ET cells (100 μl) are plated per well in a white opaque 96-well microtiter plate. The cell culture media used for the assay is the same as described above except that it contains no G418 and no phenol red. After an incubation period of 3-4 hours at 37° C. in a 5% CO2 incubator, compounds (100 μl) are added at various concentrations. Cells are then further incubated for 4 days at 37° C. in a 5% CO2 incubator. Thereafter, the culture media is removed and cells are lysed by the addition of 95 μL of the luciferase buffer (luciferin substrate in buffered detergent). Cell lysates are incubated at room temperature and protected from direct light for at least 10 minutes. Plates are read for luciferase counts using a luminometer (Wallac MicroBeta Trilux, Perkin ELmer™, MA, USA).
The 50% inhibitory concentrations (IC50s) for inhibitory effect are determined from dose response curves using eleven concentrations per compound in duplicate. Curves are fitted to data points using nonlinear regression analysis, and IC50s are interpolated from the resulting curve using GraphPad Prism software, version 2.0 (GraphPad Software Inc., San Diego, Calif., USA).
Table 2 show compounds representative of the present invention and the EC50 values against the HCV 1b genotype.
In the case of `COC(=O)N[C@H](C(=O)N1CCC[C@H]1c1nc2cc(-c3ccc(-c4ccc5[nH]c([C@@H]6CCCN6C(=O)[C@@H](NC(=O)OC)C(C)C)nc5c4)c(C)c3C)ccc2[nH]1)C(C)C` [Compound 13, ((S)-1-{(S)-2-[5-(4-{2-[(S)-1-((S)-2-Methoxycarbonylamino-3-methyl-butyryl)-pyrrolidin-2-yl]-1H-benzoimidazol-5-yl}-2,3-dimethyl-phenyl)-1H-benzoimidazol-2-yl]-pyrrolidine-1-carbonyl}-2-methyl-propyl)-carbamic acid methyl ester], the EC50 is reported as ≤ 5 nM. `COC(=O)N[C@H](C(=O)N1CCC[C@H]1c1nc2cc(-c3cc(C)c(-c4ccc5nc([C@@H]6CCCN6C(=O)[C@@H](NC(=O)OC)C(C)C)[nH]c5c4)cc3C)ccc2[nH]1)C(C)C` [Compound 14, ((S)-1-{(S)-2-[5-(4-{2-[(S)-1-((S)-2-Methoxycarbonylamino-3-methyl-butyryl)-pyrrolidin-2-yl]-1H-benzoimidazol-5-yl}-2,5-dimethyl-phenyl)-1H-benzoimidazol-2-yl]-pyrrolidine-1-carbonyl}-2-methyl-propyl)-carbamicacid methyl ester] was tested, and the EC50 was ≤ 5 nM. `COC(=O)N[C@H](C(=O)N1CCC[C@H]1c1nc2cc(-c3cnc(-c4ccc5[nH]c([C@@H]6CCCN6C(=O)[C@@H](NC(=O)OC)C(C)C)nc5c4)nc3)ccc2[nH]1)C(C)C` [Compound 15, ((S)-1-{(S)-2-[5-(5-{2-[(S)-1-((S)-2-Methoxycarbonylamino-3-methyl-butyryl)-pyrrolidin-2-yl]-1H-benzoimidazol-5-yl}-pyrimidin-2-yl)-1H-benzoimidazol-2-yl]-pyrrolidine-1-carbonyl}-2-methyl-propyl)-carbamic acid methyl ester] was tested, and the EC50 was ≤ 5 nM. `CC(C)(C)OC(=O)N1CCC[C@H]1c1nc2cc(-c3ccc(-c4ccc5[nH]c([C@@H]6CCCN6C(=O)OC(C)(C)C)nc5c4)s3)ccc2[nH]1` [Compound 16, (2S,2′S)-tert-butyl-2,2′-(5,5′-(thiophene-2,5-diyl)bis(1H-benzo[d]imidazole-5,2-diyl))dipyrrolidine-1-carboxylate] gave an EC50 of 5 to 5000 nM. For `COC(=O)N[C@H](C(=O)N1CCC[C@H]1c1nc2cc(-c3ccc(-c4ccc5[nH]c([C@@H]6CCCN6C(=O)[C@@H](NC(=O)OC)C(C)C)nc5c4)s3)ccc2[nH]1)C(C)C` [Compound 17], the EC50 was ≤ 5 nM. With `COC(=O)N[C@H](C(=O)N1CCC[C@H]1c1nc2cc(-c3csc(-c4ccc5[nH]c([C@@H]6CCCN6C(=O)[C@@H](NC(=O)OC)C(C)C)nc5c4)c3)ccc2[nH]1)C(C)C` [Compound 18, methyl N-[(1S)-1-[(2S)-2-[5-[4-[2-[(2S)-1-[(2S)-2-(methoxycarbonylamino)-3-methyl-butanoyl]pyrrolidin-2-yl]-1H-benzimidazol-5-yl]-2-thienyl]-1H-benzimidazol-2-yl]pyrrolidine-1-carbonyl]-2-methyl-propyl]carbamate] the EC50 was ≤ 5 nM. In the case of `COC(=O)N[C@H](C(=O)N1CCC[C@H]1c1nc2cc(-c3ncc(-c4ccc5nc([C@@H]6CCCN6C(=O)[C@@H](NC(=O)OC)C(C)C)[nH]c5c4)c(OCc4ccccc4)n3)ccc2[nH]1)C(C)C` [Compound 19, ((S)-1-{(S)-2-[5-(4-Benzyloxy-5-{2-[(S)-1-((S)-2-methoxycarbonylamino-3-methyl-butyryl)-pyrrolidin-2-yl]-1H-benzoimidazol-5-yl}-pyrimidin-2-yl)-1H-benzoimidazol-2-yl]-pyrrolidine-1-carbonyl}-2-methyl-propyl)-carbamic acid methyl ester], the EC50 is reported as ≤ 5 nM. Work on `COC(=O)N[C@H](C(=O)N1CCC[C@H]1c1nc2cc(-c3ncc(-c4ccc5nc([C@@H]6CCCN6C(=O)[C@@H](NC(=O)OC)C(C)C)[nH]c5c4)c(O)n3)ccc2[nH]1)C(C)C` [Compound 20, ((S)-1-{(S)-2-[5-(4-Hydroxy-5-{2-[(S)-1-((S)-2-methoxycarbonylamino-3-methyl-butyryl)-pyrrolidin-2-yl]-1H-benzoimidazol-5-yl}-pyrimidin-2-yl)-1H-benzoimidazol-2-yl]-pyrrolidine-1-carbonyl}-2-methyl-propyl)-carbamic acid methyl ester] yielded an EC50 of 5 to 5000 nM. For `COC(=O)N[C@H](C(=O)N1CCC[C@H]1c1nc2ccc(-c3cn(-c4ccc5nc([C@@H]6CCCN6C(=O)[C@@H](NC(=O)OC)C(C)C)[nH]c5c4)nn3)cc2[nH]1)C(C)C` [Compound 21, ((S)-1-{(S)-2-[6-(1-{2-[(S)-1-((S)-2-Methoxycarbonylamino-3-methyl-butyryl)-pyrrolidin-2-yl]-3H-benzoimidazol-5-yl}-1H-[1,2,3]triazol-4-yl)-1H-benzoimidazol-2-yl]-pyrrolidine-1-carbonyl}-2-methyl-propyl)-carbamic acid methyl ester], the EC50 was ≤ 5 nM. `CC[C@@H]1CC[C@@H](c2nc3cc(-c4ccc(-c5ccc6nc([C@@H]7CC[C@@H](CC)N7C(=O)[C@@H](NC(=O)OC)C(C)C)[nH]c6c5)cc4)ccc3[nH]2)N1C(=O)[C@@H](NC(=O)OC)C(C)C` [Compound 24, ((S)-1-{(2R,5S)-2-Ethyl-5-[5-(4-{2-[(2S,5R)-5-ethyl-1-((S)-2-methoxycarbonylamino-3-methyl-butyryl)-pyrrolidin-2-yl]-1H-benzoimidazol-5-yl}-phenyl)-1H-benzoimidazol-2-yl]-pyrrolidine-1-carbonyl}-2-methyl-propyl)-carbamic acid methyl ester] was tested, and the EC50 was ≤ 5 nM. With `COC(=O)N[C@H](C(=O)N1C[C@H](OC(C)(C)C)C[C@H]1c1nc2cc(-c3ccc(-c4ccc5[nH]c([C@@H]6C[C@@H](OC(C)(C)C)CN6C(=O)[C@@H](NC(=O)OC)C(C)C)nc5c4)cc3)ccc2[nH]1)C(C)C` [Compound 25, ((S)-1-{(2S,4R)-4-tert-butoxy-2-[5-(4-{2-[(2S,4R)-4-tert-butoxy-1-((S)-2-methoxycarbonylamino-3-methyl-butyryl)-pyrrolidin-2-yl]-1H-benzoimidazol-5-yl}-phenyl)-1H-benzoimidazol-2-yl]-pyrrolidine-1-carbonyl}-2-methyl-propyl)-carbamic acid methyl ester] the EC50 was ≤ 5 nM. `COC(=O)N[C@H](C(=O)N1CCC[C@H]1c1nc2cc(F)c(-c3ccc(-c4cc5[nH]c([C@@H]6CCCN6C(=O)[C@@H](NC(=O)OC)C(C)C)nc5cc4F)cc3)cc2[nH]1)C(C)C` [Compound 27, Dimethyl (2S,2′S)-1,1′-((2S,2′S)-2,2′-(5,5′-(1,4-phenylene)bis(6-fluoro-1H-benzo[d]imidazole-5,2-diyl))bis(pyrrolidine-2,1-diyl))bis(3-methyl-1-oxobutane-2,1-diyl)dicarbamate] was tested, and the EC50 was ≤ 5 nM. `CC(C)(C)OC(=O)N1CCN(C(=O)OCc2ccccc2)[C@H](c2nc3cc(C#Cc4ccc5[nH]c([C@@H]6CCCCN6C(=O)OCc6ccccc6)nc5c4)ccc3[nH]2)C1` [Compound 28, (S)-2-{5-[2-((S)-1-Benzyloxycarbonyl-piperidin-2-yl)-1H-benzoimidazol-5-ylethynyl]-1H-benzoimidazol-2-yl}-piperazine-1,4-dicarboxylic acid 1-benzyl ester 4-tert-butyl ester] gave an EC50 of 5 to 5000 nM. `CC(C)(C)OC(=O)N1CCN(C(=O)OCc2ccccc2)[C@H](c2nc3cc(C#Cc4ccc5[nH]c([C@@H]6CN(C(=O)OC(C)(C)C)CCN6C(=O)OCc6ccccc6)nc5c4)ccc3[nH]2)C1` [Compound 29, (S)-2-{5-[2-((S)-1-Benzyloxycarbonyl-4-tert-butyloxycarbonyl-piperazin-2-yl)-1H-benzoimidazol-5-ylethynyl]-1H-benzoimidazol-2-yl}-piperazine-1,4-dicarboxylic acid 1-benzyl ester 4-tert-butyl ester] was tested, and the EC50 was > 5000 nM. Work on `O=C(OCc1ccccc1)N1CCCC[C@H]1c1nc2cc(C#Cc3ccc4nc([C@@H]5CCCCN5C(=O)OCc5ccccc5)[nH]c4c3)ccc2[nH]1` [Compound 30, (S)-2-{5-[2-((S)-1-Benzyloxycarbonyl-piperidin-2-yl)-1H-benzoimidazol-5-ylethynyl]-1H-benzoimidazol-2-yl}-piperidine-1-carboxylic acid benzyl ester] yielded an EC50 of 5 to 5000 nM.

— patent publication US8354419B2, “Benzimidazole analogues for the treatment or prevention of flavivirus infections” (Vertex Pharmaceuticals Incorporated, priority 2009, dated 2013)
